This is an account of results in patent US10611750B2, “Tetrahydroquinoline compositions as bet bromodomain inhibitors” (FORMA Therapeutics, Inc., priority 2013, dated 2020).

Assay [1] concerns the target T1, BRD4 Bromodomain 1 (BRD4 BD1) (Homo sapiens, UniProt O60885).
T1 construct: 44-168 and BRD4 BD2
The assay is described as follows: AlphaScreen binding assay, BRD4 BD1. The note with it: His-tagged BRD4 BD1 50 nM, biotinylated H4 (1-21) K5/8/12/16 tetra-acetylated peptide 50 nM, compounds listed under IC50 range headings. Put shortly: (§1)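 Compound dilution series were mixed with His-tagged BRD4 bromodomain and biotinylated tetra-acetylated H4 (1-21) peptide at pH 7.3 (BD1 and peptide at 50 nM, BD2 and peptide at 100 nM). Donor and acceptor beads were then added, and plates were equilibrated at least 1 h before reading. IC50 values were fitted with a four-parameter logistic model.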
For orientation: Alpha assays give light when donor and acceptor beads are brought close together.

Assay [2] concerns the target T2, BRD4 Bromodomain 2 (BRD4 BD2) (Homo sapiens, UniProt O60885).
T2 construct: 333-460 were cloned, expressed, and purified to homogeneity
Description: AlphaScreen binding assay, BRD4 BD2. The note with it: His-tagged BRD4 BD2 100 nM, biotinylated H4 (1-21) K5/8/12/16 tetra-acetylated peptide 100 nM, compounds listed under IC50 range headings. The method in brief: as §1

Assay [3] concerns acute myelocytic leukemia (AML) cell line MV4-11. The assay is described as follows: Oncology cell growth assay (3-day proliferation, CellTiter-Glo). It counts as cell-based. The note with it: Homo sapiens, MV4-11, 72 h, MV4-11 cells, 3000 cells/well, compounds listed under IC50 range headings, read-out: MV411 IC50 (gIC50, inhibition of proliferation). The method in brief: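 A 3-day proliferation test used MV4-11 cells seeded at 3000 per well with eight compound concentrations (10 μM top, 3-fold dilution) at 37° C in 5% CO2. CellTiter-Glo luminescence defined viable cell signal. A four-parameter logistic curve against DMSO and background wells gave the gIC50.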

A value given as a limit tells only on which side of the number the result lay.

Turning to `COC(=O)N1c2ccc(-c3cnn(C4CCN(C)C4)c3)c(Oc3ccc(F)cc3)c2CC[C@@H]1C` (stereo partly drawn) [I-249, (2S)-methyl 5-(4-fluorophenoxy)-2-methyl-6-(1-(1-methylpyrrolidin-3-yl)-1H-pyrazol-4-yl)-3,4-dihydroquinoline-1(2H)-carboxylate], the results for the IC50 in assay [1], in assay [2] and in assay [3] were 100 to 1000 nM, < 50 nM and < 500 nM, respectively.

Consider `CCN1CC(Oc2c(-c3cnn(C4CC4)c3)ccc3c2CC[C@H](C)N3C(=O)OC)C1` [I-251, (S)-methyl 6-(1-cyclopropyl-1H-pyrazol-4-yl)-5-(1-ethylazetidin-3-yloxy)-2-methyl-3,4-dihydroquinoline-1(2H)-carboxylate], for which the IC50 in assay [1] was 1000 to 10000 nM; in assay [2], 50 to 500 nM; in assay [3] it was > 1000 nM.

Take `COC(=O)N1c2ccc(-c3cnn(C4CC4)c3)c(OC3CN(C(C)C)C3)c2CC[C@@H]1C` [I-252, (S)-methyl 6-(1-cyclopropyl-1H-pyrazol-4-yl)-5-(1-isopropylazetidin-3-yloxy)-2-methyl-3,4-dihydroquinoline-1(2H)-carboxylate]: the IC50 in assay [1] is 1000 to 10000 nM; in assay [2], ≥ 500 nM; in assay [3], > 1000 nM.

Turning to `CCN1CC(Oc2c(-c3cnn(C4CC4)c3)ccc3c2CC[C@H](C)N3C(C)=O)C1` [I-253, (S)-1-(6-(1-cyclopropyl-1H-pyrazol-4-yl)-5-(1-ethylazetidin-3-yloxy)-2-methyl-3,4-dihydroquinolin-1(2H)-yl)ethanone], the results for the IC50 in assay [1], in assay [2] and in assay [3] were ≥ 10000 nM, ≥ 500 nM and > 1000 nM, respectively.

Turning to `CC(=O)N1c2ccc(-c3cnn(C4CC4)c3)c(OC3CN(C(C)C)C3)c2CC[C@@H]1C` [I-254, (S)-1-(6-(1-cyclopropyl-1H-pyrazol-4-yl)-5-(1-isopropylazetidin-3-yloxy)-2-methyl-3,4-dihydroquinolin-1(2H)-yl)ethanone], the IC50 in assay [1] was 1000 to 10000 nM; in assay [2], 50 to 500 nM; in assay [3], > 1000 nM.

As to `CC(=O)N1c2ccc(-c3cnn(C4CC4)c3)c(Oc3cc(C)ccn3)c2CC[C@@H]1C` [I-255, 1-[(2S)-6-(1-cyclopropyl-1H-pyrazol-4-yl)-2-methyl-5-[(4-methylpyridin-2-yl)oxy]-1,2,3,4-tetrahydroquinolin-1-yl]ethan-1-one], the IC50 in assay [1] is 100 to 1000 nM; in assay [2] it was < 50 nM; in assay [3], < 500 nM.

Regarding `CC(=O)N1c2ccc(-c3cnn(C4CC4)c3)c(Oc3cccc(C)n3)c2CC[C@@H]1C` [I-256, (S)-1-(6-(1-cyclopropyl-1H-pyrazol-4-yl)-2-methyl-5-(6-methylpyridin-2-yloxy)-3,4-dihydroquinolin-1 (2H)-yl)ethanone], the IC50 in assay [1] was 100 to 1000 nM; in assay [2], < 50 nM; in assay [3], < 500 nM.

On to `CC(=O)N1c2ccc(-c3cnn(C4CC4)c3)c(Oc3nccc4ccccc34)c2CC[C@@H]1C` [I-257, (S)-1-(6-(1-cyclopropyl-1H-pyrazol-4-yl)-5-(isoquinolin-1-yloxy)-2-methyl-3,4-dihydroquinolin-1(2H)-yl)ethanone], for which the IC50 was 1000 to 10000 nM in assay [1], < 50 nM in assay [2] and < 500 nM in assay [3].

On to `CC(=O)N1c2ccc(-c3cnn(C4CCNCC4)c3)c(Oc3ccccc3F)c2CC[C@@H]1C` [I-258, (S)-1-(5-(2-fluorophenoxy)-2-methyl-6-(1-(piperidin-4-yl)-1H-pyrazol-4-yl)-3,4-dihydroquinolin-1 (2H)-yl)ethanone], for which the figures for the IC50 in assay [1], in assay [2] and in assay [3] were 100 to 1000 nM, < 50 nM and < 500 nM, respectively.

Consider `COC(=O)N1c2ccc(-c3cnn(C4CCNCC4)c3)c(Oc3ccccc3F)c2CC[C@@H]1C` [I-259, (S)-methyl 5-(2-fluorophenoxy)-2-methyl-6-(1-(piperidin-4-yl)-1H-pyrazol-4-yl)-3,4-dihydroquinoline-1(2H)-carboxylate], for which the IC50 in assay [1] was 100 to 1000 nM; in assay [2], < 50 nM; in assay [3] it was < 500 nM.

`COC(=O)N1c2ccc(-c3cnn(C4CCNCC4)c3)c(Oc3ccc(F)cc3F)c2CC[C@@H]1C` [I-263, (S)-methyl 5-(2,4-difluorophenoxy)-2-methyl-6-(1-(piperidin-4-yl)-1H-pyrazol-4-yl)-3,4-dihydroquinoline-1(2H)-carboxylate]: the IC50 in assay [1] was 100 to 1000 nM; in assay [2] it was < 50 nM; in assay [3] it was < 500 nM.

For the compound `C[C@H]1CCc2c(ccc(-c3cnn(C4CNC4)c3)c2Oc2cccc(F)c2F)N1C(=O)C1CC1` [I-268, (S)-(6-(1-(azetidin-3-yl)-1H-pyrazol-4-yl)-5-(2,3-difluorophenoxy)-2-methyl-3,4-dihydroquinolin-1(2H)-yl)(cyclopropyl)methanone], the IC50 was 100 to 1000 nM in assay [1], < 50 nM in assay [2] and < 500 nM in assay [3].

As for `COC(=O)N1c2ccc(-c3cnn(C4CNC4)c3)c(Oc3cccc(F)c3F)c2CC[C@@H]1C` [I-270, (S)-methyl 6-(1-(azetidin-3-yl)-1H-pyrazol-4-yl)-5-(2,3-difluorophenoxy)-2-methyl-3,4-dihydroquinoline-1(2H)-carboxylate], the IC50 in assay [1] was 100 to 1000 nM; in assay [2] it was < 50 nM; in assay [3] it was < 500 nM.

As for `COC(=O)N1c2ccc(-c3cnn(C4CN(C)C4)c3)c(Oc3ccc(F)cc3)c2CC[C@@H]1C` [I-282, Methyl (S)-5-(4-fluorophenoxy)-2-methyl-6-(1-(1-methylazetidin-3-yl)-1H-pyrazol-4-yl)-3,4-dihydroquinoline-1(2H)-carboxylate], the IC50 in assay [1] is 100 to 1000 nM; in assay [2], < 50 nM; in assay [3] it was < 500 nM.

As for `COC(=O)N1c2ccc(-c3cnn(C4CCN(C)CC4)c3)c(Oc3ccc(F)cc3)c2CC[C@@H]1C` [I-283, Methyl (S)-5-(4-fluorophenoxy)-2-methyl-6-(1-(1-methylpiperidin-4-yl)-1H-pyrazol-4-yl)-3,4-dihydroquinoline-1(2H)-carboxylate], the IC50 was 100 to 1000 nM in assay [1], < 50 nM in assay [2] and < 500 nM in assay [3].

For the compound `COC(=O)N1c2ccc(-c3cnn(C4CN(C)C4)c3)c(OC3CCC3)c2CC[C@@H]1C` [I-284, Methyl (S)-5-cyclobutoxy-2-methyl-6-(1-(1-methylazetidin-3-yl)-1H-pyrazol-4-yl)-3,4-dihydroquinoline-1(2H)-carboxylate], the IC50 in assay [1] fell in the range of 1000 to 10000 nM; in assay [2] it was 50 to 500 nM; in assay [3], 500 to 1000 nM.

Regarding `COC(=O)N1c2ccc(-c3cnn(C4CCN(C)CC4)c3)c(OC3CCC3)c2CC[C@@H]1C` [I-285, Methyl (S)-5-cyclobutoxy-2-methyl-6-(1-(1-methylpiperidin-4-yl)-1H-pyrazol-4-yl)-3,4-dihydroquinoline-1(2H)-carboxylate], the figures for the IC50 in assay [1], in assay [2] and in assay [3] were 100 to 1000 nM, < 50 nM and < 500 nM, respectively.

Take `CC(=O)N1c2ccc(-c3cnn(C4CC4)c3)c(Oc3ncccc3C)c2CC[C@@H]1C` [I-286, (S)-1-(6-(1-cyclopropyl-1H-pyrazol-4-yl)-2-methyl-5-(3-methylpyridin-2-yloxy)-3,4-dihydroquinolin-1 (2H)-yl)ethanone]: the figures for the IC50 in assay [1], in assay [2] and in assay [3] were 1000 to 10000 nM, 50 to 500 nM and < 500 nM, respectively.
